Read-outs that look alike come from different tables or passages of the source.
How the values were obtained:
[1] = Fluorescence properties and quantum yield measurements of the BAA library; assay type: physicochemical; parameters: FWHM (full-width-at half max): unit not given here; conditions: anhydrous DMSO; for λmax ABS / λmax EM: polystyrene 96 well plate; for FWHM (full-width-at half max): emission; for φfl (quantum yield): relative to reference fluorophore at three concentrations
Description: General Instruments. Synthesized sample purification was performed with an Agilent 1260 Infinity HPLC utilizing a C18 column (150mm×21.2 mm). MS (HRMS, ESI) spectra data was collected with an Agilent 6244 TOF LC/MS with diode array detector VL+ and C18 column (4.6 mm×50 mm). Absorbance and fluorescence data were measured on a SpectraMax M5 Microplate reader. NMR spectra, ^1H and ^13C, were recorded on a Bruker ARK400 spectrometer. BAA microscopy screening in cells for organelle specificity and signal-to-background ratio was completed with an Axio Zeiss Light Microscope and 63× oil immersion objective.
Fluorescence Properties and Quantum Yield Measurements. Spectroscopic characterizations were performed in anhydrous DMSO in polystyrene 96 well plate. Analysis included the maximum absorbance wavelength, maximum fluorescence emission wavelength, full-width-at half max, and quantum yield. Quantum yields (φfl) were determined by comparing the area under the emission spectrum of the BAA compound to a reference fluorophore solution at three concentrations using equation 1, where Grad represents the gradient from the plots of integrated fluorescence intensity vs absorbance at three concentrations and q is the refractive index of the solvent. Fluorescein in 0.1 M NaOH (φfl=0.91)^3 was the reference for samples with a max absorbance up to 510 nm, where an excitation of 470 nm was used with the emission integrated between 490 to 800 nm. Rhodamine B in ethanol (φfl=0.70) was the reference for samples with a max absorbance between 511-595 nm, where an excitation of 525 nm was used with the emission integrated between 545 to 800 nm. Cresyl violet in methanol (φfl=0.54)^4 was the reference for samples with a max absorbance above 595 nm, where an excitation of 570 nm was used with the emission integrated between 590 to 800 nm.

[2] = cited from earlier work

Molecule	Stokes Shift [1]	λmax ABS [1]	λmax EM [1]	FWHM (full-width-at half max) [1]	φfl (quantum yield) [1]	φfl (quantum yield) ([2]; in ethanol, reference for max absorbance between 511-595 nm)	φfl (quantum yield) ([2]; in methanol, reference for max absorbance above 595 nm)
CC1=CC(C=Cc2cccc(-c3ccc(S(C)(=O)=O)cc3)n2)=[N+]2C1=Cc1ccc(CCC(=O)O)n1[B-]2(F)F [BAA-59a]	10 nm	571 nm	581 nm	30	0.53		
CC1=CC(C=Cc2ccc(-c3cccs3)s2)=[N+]2C1=Cc1ccc(C(=Cc3ccc(-c4cccs4)s3)CC(=O)O)n1[B-]2(F)F [BAA-60b]	16 nm	588 nm	604 nm	37	0.47		
CC1=CC(C=Cc2cccc3cnccc23)=[N+]2C1=Cc1ccc(CCC(=O)O)n1[B-]2(F)F [BAA-62a]	15 nm	579 nm	594 nm	33	0.68		
CC1=CC(C=Cc2cc3ccc(C)cc3nc2Cl)=[N+]2C1=Cc1ccc(CCC(=O)O)n1[B-]2(F)F [BAA-63a]	15 nm	592 nm	607 nm	39	0.43		
CC1=CC(C=Cc2c[nH]nc2-c2ccc(Cl)cc2)=[N+]2C1=Cc1ccc(CCC(=O)O)n1[B-]2(F)F [BAA-64a]	17 nm	576 nm	593 nm	37	0.80		
CC1=CC(C=Cc2ccc(-c3ccccc3F)o2)=[N+]2C1=Cc1ccc(CCC(=O)O)n1[B-]2(F)F [BAA-65a]	16 nm	606 nm	622 nm	54	0.21		
CC1=CC(C=Cc2ccc(-c3ccc(Cl)s3)nc2)=[N+]2C1=Cc1ccc(CCC(=O)O)n1[B-]2(F)F [BAA-66a]	11 nm	587 nm	598 nm	34	0.28		
CCSc1ccc(-c2ccc(C=CC3=[N+]4C(=Cc5ccc(CCC(=O)O)n5[B-]4(F)F)C(C)=C3)cn2)cc1 [BAA-67a]	11 nm	587 nm	598 nm	61	0.15		
CC1=CC(C=Cc2ccc(-c3nccs3)cc2)=[N+]2C1=Cc1ccc(CCC(=O)O)n1[B-]2(F)F [BAA-68a]	10 nm	585 nm	595 nm	30	0.17		
CC1=CC(C=Cc2ccc(-c3cc(Cl)cc(Cl)c3)nc2)=[N+]2C1=Cc1ccc(CCC(=O)O)n1[B-]2(F)F [BAA-69a]	12 nm	577 nm	589 nm	30	0.85		
CC1=CC(C=Cc2ccc(-c3cccc(C(F)(F)F)c3)nc2)=[N+]2C1=Cc1ccc(CCC(=O)O)n1[B-]2(F)F [BAA-70a]	8 nm	580 nm	588 nm	33	0.17		
CC1=CC(C=Cc2ccc(-c3ccc(OC(F)(F)F)cc3)nc2)=[N+]2C1=Cc1ccc(CCC(=O)O)n1[B-]2(F)F [BAA-71a]	9 nm	580 nm	589 nm	32	0.19		
CC1=CC(C=Cc2ccc(-c3ccc(F)c(F)c3)nc2)=[N+]2C1=Cc1ccc(CCC(=O)O)n1[B-]2(F)F [BAA-72a]	10 nm	580 nm	590 nm	31	0.40		
CC1=CC(C=Cc2ccc(OCCBr)cc2)=[N+]2C1=Cc1ccc(CCC(=O)O)n1[B-]2(F)F [BAA-73a]	14 nm	579 nm	593 nm	46	0.55		
COc1ccc(C=O)cc1OCCOc1cc(C=CC2=[N+]3C(=Cc4ccc(CCC(=O)O)n4[B-]3(F)F)C(C)=C2)ccc1OC [BAA-74a]	18 nm	584 nm	602 nm	59	0.15		
COc1ccc(C=O)cc1OCCOc1cc(C=CC2=[N+]3C(=Cc4ccc(C(=Cc5ccc(OC)c(OCCOc6cc(C=O)ccc6OC)c5)CC(=O)O)n4[B-]3(F)F)C(C)=C2)ccc1OC [BAA-74b]	17 nm	583 nm	600 nm	51	0.22		
CC1=CC(C=Cc2ccc(N(CCC#N)CCC#N)cc2)=[N+]2C1=Cc1ccc(CCC(=O)O)n1[B-]2(F)F [BAA-75a]	49 nm	614 nm	663 nm	91	0.08		
CC1=CC(C=Cc2ccc(N(CCC#N)CCC#N)cc2)=[N+]2C1=Cc1ccc(C(=Cc3ccc(N(CCC#N)CCC#N)cc3)CC(=O)O)n1[B-]2(F)F [BAA-75b]	55 nm	605 nm	660 nm	91	0.18		
CC1=CC(C=Cc2c[nH]c3c(OCc4ccccc4)cccc23)=[N+]2C1=Cc1ccc(CCC(=O)O)n1[B-]2(F)F [BAA-77a]	31 nm	603 nm	634 nm	61	0.50		
CC1=CC(C=Cc2ccc(OCc3ccc([N+](=O)[O-])cc3)cc2)=[N+]2C1=Cc1ccc(CCC(=O)O)n1[B-]2(F)F [BAA-78a]	11 nm	581 nm	592 nm	46	0.19		
CC1=CC(C=Cc2ccc(OCc3ccc([N+](=O)[O-])cc3)cc2)=[N+]2C1=Cc1ccc(C(=Cc3ccc(OCc4ccc([N+](=O)[O-])cc4)cc3)CC(=O)O)n1[B-]2(F)F [BAA-78b]	14 nm	579 nm	593 nm	39	0.37		
CCN(CC)c1ccc2c(-c3ccccc3C(=O)O)c3ccc(=[N+](CC)CC)cc-3oc2c1.[Cl-] [Rhodamine B]						0.70	
Cresyl violet							0.54
